No end group written: not given here.
What was measured:
QRFPR mutants [1] = target: T1, QRFPR mutants (Homo sapiens, UniProt Q96P65, C201A); assay: 26RFa-induced calcium mobilization, receptor mutants; format: cell-based; settings: HEK293, QRFPR C201^ECL2A; HEK293, Fluo-4; mean ± S.E.M., n ≥ 3
T1 construct: expressed in transfected cells; host or cells: HEK293, transient transfection by electroporation
Description: (§1) The gene encoding the WT QRFPR, PrPRR, KISS1R, NPFF1R, or NPFF2R was subcloned into the pcDNA3.0 vector with the addition of an N-terminal HA tag. All of the mutations used for functional studies were generated by QuickChange PCR and verified by DNA sequencing.
(§2) HEK293 cells were obtained from ATCC (Manassas, VA, USA) and cultured in DMEM supplemented with 10% (v/v) FBS, 100 mg/L penicillin, and 100 mg/L streptomycin in 5% CO2 at 37 °C. For transient transfection, ~2.5 × 10^6 cells were mixed with 2 µg plasmids in 200 µL transfection buffer, and electroporation was carried out with a Scientz-2C electroporation apparatus (Scientz Biotech, Ningbo, China). The experiments were carried out 24 h after transfection.
(§3) For QRFPR, PrRPR, and KISS1R, HEK293 cells transfected with WT receptor or its mutants were seeded at a density of 4 × 10^4 per well into 96-well culture plates and incubated for 24 h at 37 °C in 5% CO2. For NPFF1R and NPFF2R, plasmids were transfected into HEK293 cells stably expressing Gα16. On the next day, cells were incubated with 2 μmol/L Fluo-4 AM in HBSS supplemented with 5.6 mmol/L D-glucose and 250 μmol/L sulfinpyrazone at 37 °C for 45 min. After washing, cells were added with 50 μL HBSS and incubated at room temperature for 10 min, then 25 μL agonist buffer was dispensed into the well using a FlexStation III microplate reader (Molecular Devices), and intracellular calcium change was recorded at an excitation wavelength of 485 nm and an emission wavelength of 525 nm. EC50 and Emax values for each curve were calculated by Prism 8.0 software (GraphPad Software).

QRFPR mutants [2] = target: T2, QRFPR mutants (Homo sapiens, UniProt Q96P65, D109A); assay: as above; format: cell-based; settings: HEK293, QRFPR D109^2.67A; HEK293, Fluo-4; mean ± S.E.M., n ≥ 3
T2 construct: expressed in transfected cells; host or cells: HEK293, transient transfection by electroporation
Description: as §1, §2, §3

QRFPR mutants [3] = target: T3, QRFPR mutants (Homo sapiens, UniProt Q96P65, D307A); assay: as above; format: cell-based; settings: HEK293, QRFPR D307^7.27A; HEK293, Fluo-4; mean ± S.E.M., n ≥ 3
T3 construct: expressed in transfected cells; host or cells: HEK293, transient transfection by electroporation
Description: as §1, §2, §3

QRFPR mutants [4] = target: T4, QRFPR mutants (Homo sapiens, UniProt Q96P65, E203A); assay: as above; format: cell-based
T4 construct: expressed in transfected cells; host or cells: HEK293, transient transfection by electroporation
Description: as §1, §2, §3

QRFPR mutants [5] = target: T5, QRFPR mutants (Homo sapiens, UniProt Q96P65, F289L); assay: as above; format: cell-based
T5 construct: expressed in transfected cells; host or cells: HEK293, transient transfection by electroporation
Description: as §1, §2, §3

QRFPR mutants [6] = target: T6, QRFPR mutants (Homo sapiens, UniProt Q96P65, H290A); assay: as above; format: cell-based; settings: HEK293, QRFPR H290^6.52A; HEK293, Fluo-4; mean ± S.E.M., n ≥ 3
T6 construct: expressed in transfected cells; host or cells: HEK293, transient transfection by electroporation
Description: as §1, §2, §3

QRFPR mutants [7] = target: T7, QRFPR mutants (Homo sapiens, UniProt Q96P65, H293A); assay: as above; format: cell-based; settings: HEK293, QRFPR H293^6.55A; HEK293, Fluo-4; mean ± S.E.M., n ≥ 3
T7 construct: expressed in transfected cells; host or cells: HEK293, transient transfection by electroporation
Description: as §1, §2, §3

QRFPR mutants [8] = target: T8, QRFPR mutants (Homo sapiens, UniProt Q96P65, I117A); assay: as above; format: cell-based; settings: HEK293, QRFPR I117^3.24A; HEK293, Fluo-4; mean ± S.E.M., n ≥ 3
T8 construct: expressed in transfected cells; host or cells: HEK293, transient transfection by electroporation
Description: as §1, §2, §3

QRFPR mutants [9] = target: T9, QRFPR mutants (Homo sapiens, UniProt Q96P65, K189A); assay: as above; format: cell-based; settings: HEK293, QRFPR K189^ECL2A; HEK293, Fluo-4; mean ± S.E.M., n ≥ 3
T9 construct: expressed in transfected cells; host or cells: HEK293, transient transfection by electroporation
Description: as §1, §2, §3

QRFPR mutants [10] = target: T10, QRFPR mutants (Homo sapiens, UniProt Q96P65, L193A); assay: as above; format: cell-based
T10 construct: expressed in transfected cells; host or cells: HEK293, transient transfection by electroporation
Description: as §1, §2, §3

QRFPR mutants [11] = target: T11, QRFPR mutants (Homo sapiens, UniProt Q96P65, Q211A); assay: as above; format: cell-based; settings: HEK293, QRFPR Q211^5.35A; HEK293, Fluo-4; mean ± S.E.M., n ≥ 3
T11 construct: expressed in transfected cells; host or cells: HEK293, transient transfection by electroporation
Description: as §1, §2, §3

QRFPR mutants [12] = target: T12, QRFPR mutants (Homo sapiens, UniProt Q96P65, S108A); assay: as above; format: cell-based; settings: HEK293, QRFPR S108^2.65A; HEK293, Fluo-4; mean ± S.E.M., n ≥ 3
T12 construct: expressed in transfected cells; host or cells: HEK293, transient transfection by electroporation
Description: as §1, §2, §3

NPY1R and NPY4R = settings: cited from earlier work
Description: Specifically, Arg25 and Arg35 in 26RFa and NPY/PP are exposed to a conserved polar environment that includes residues E^45.52, T^5.39, and D/E^6.59 in QRFPR and NPYRs. However, subtle differences exist in the special binding interactions between these arginines and conserved polar residues (Fig. 4d–f). Side chains of Arg35 in NPY/PP form a conserved salt bridge with D^6.59 and a hydrogen bond with T^5.39 (NPY1R and NPY4R) or a salt bridge with E^45.52 (NPY2R) (Fig. 4e, f). In 26RFa, Arg25 retains its salt bridge with E203^45.52 but fails to build a salt bridge with E297^6.59 (Fig. 3b). It is p ... || Phe26 in 26RFa and Tyr36 in NPY/PP show distinct binding characteristics for QRFRP and NPYRs, respectively. […] (Fig. 4e). However, in NPY2R, this hydrogen bond is absent due to the substitution of glutamine with leucine at position 5.46, which lacks a hydrogen bond donor (Fig. 4c, f). Similarly, QRFPR also has a leucine at position 5.46, which cannot form a corresponding hydrogen bond with Phe26 in 26RFa. Furthermore, in contrast to the notable impact of Q^5.46 on the NP ...

T4 sequence (Q96P65 whole entry E203A): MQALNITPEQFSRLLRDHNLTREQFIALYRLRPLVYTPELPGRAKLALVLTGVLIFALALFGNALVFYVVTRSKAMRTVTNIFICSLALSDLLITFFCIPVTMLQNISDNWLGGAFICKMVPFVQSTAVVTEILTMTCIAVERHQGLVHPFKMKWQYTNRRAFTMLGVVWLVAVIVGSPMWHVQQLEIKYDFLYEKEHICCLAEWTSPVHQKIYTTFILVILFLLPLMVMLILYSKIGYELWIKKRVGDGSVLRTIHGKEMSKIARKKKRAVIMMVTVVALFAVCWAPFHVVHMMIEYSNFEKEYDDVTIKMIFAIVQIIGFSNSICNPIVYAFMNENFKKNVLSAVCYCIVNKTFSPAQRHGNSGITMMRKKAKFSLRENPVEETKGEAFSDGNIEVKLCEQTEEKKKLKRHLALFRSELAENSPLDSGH
T5 sequence (Q96P65 whole entry F289L): as the sequence (Q96P65 whole entry E203A) above, with A203E, F289L counted along it
T10 sequence (Q96P65 whole entry L193A): as the sequence (Q96P65 whole entry E203A) above, with L193A, A203E counted along it
T9 sequence (Q96P65 whole entry K189A): as the sequence (Q96P65 whole entry E203A) above, with K189A, A203E counted along it
T1 sequence (Q96P65 whole entry C201A): as the sequence (Q96P65 whole entry E203A) above, with C201A, A203E counted along it
T12 sequence (Q96P65 whole entry S108A): as the sequence (Q96P65 whole entry E203A) above, with S108A, A203E counted along it
T11 sequence (Q96P65 whole entry Q211A): as the sequence (Q96P65 whole entry E203A) above, with A203E, Q211A counted along it
T3 sequence (Q96P65 whole entry D307A): as the sequence (Q96P65 whole entry E203A) above, with A203E, D307A counted along it
T6 sequence (Q96P65 whole entry H290A): as the sequence (Q96P65 whole entry E203A) above, with A203E, H290A counted along it
T7 sequence (Q96P65 whole entry H293A): as the sequence (Q96P65 whole entry E203A) above, with A203E, H293A counted along it
T8 sequence (Q96P65 whole entry I117A): as the sequence (Q96P65 whole entry E203A) above, with I117A, A203E counted along it
T2 sequence (Q96P65 whole entry D109A): as the sequence (Q96P65 whole entry E203A) above, with D109A, A203E counted along it

Question: What does the source list for ASGPLGTLAEELSSYSRRKGGFSFRF-NH2 [26RFa]?
Answer: Emax (QRFPR mutants [1]): 1.84 ± 1.5%; Emax (QRFPR mutants [2]): 111 ± 1.3%; Emax (QRFPR mutants [3]): 106 ± 0.64%; effect of E^45.52 to alanine (QRFPR mutants [4]; 26RFa, QRFPR): remarkable decline of activity or potency; Emax (QRFPR mutants [4]; HEK293, QRFPR E203^45.52A, HEK293, Fluo-4, mean ± S.E.M., n ≥ 3): 96.9 ± 0.64%; Emax (QRFPR mutants [5]; HEK293, QRFPR F289^6.51L, HEK293, Fluo-4, mean ± S.E.M., n ≥ 3): 112 ± 5.1%; effect of mutation on 26RFa activity (QRFPR mutants [5]; QRFPR F289^6.51 to leucine): did not impact the 26RFa activity; Emax (QRFPR mutants [6]): 60.4 ± 0.39%; Emax (QRFPR mutants [7]): 95.5 ± 1.6%; Emax (QRFPR mutants [8]): 75.1 ± 3.1%; Emax (QRFPR mutants [9]): 94.9 ± 1.6%; Emax (QRFPR mutants [10]; HEK293, QRFPR L193^ECL2A, HEK293, Fluo-4, mean ± S.E.M., n ≥ 3): 66.8 ± 0.54%; effect of mutation on peptide activity (QRFPR mutants [10]; QRFPR L193A): remarkable decline in peptide activity; Emax (QRFPR mutants [11]): 94.9 ± 1.6%; Emax (QRFPR mutants [12]): 51.7 ± 0.73%; role of amide-surrounding residues (C^2.57, T^2.61, Q^3.32, Q/H^7.39) in activity (NPY1R and NPY4R): critical for 26RFa and NPY/PP activities

— PMC11148045, “Structural basis for recognition of 26RFa by the pyroglutamylated RFamide peptide receptor” (Cell Discovery, 2024)
